Experimental data as given in US20260374817A1, “COMPOSITIONS COMPRISING TREM-1 INHIBITORS AND USES THEREOF” (INOTREM, priority 2023, published 2026).
Entries after “also recorded” stand apart in the source; their conditions may differ.

Experiments:
TREM-1 pathway = assay: ROS production by LPS-stimulated human primary neutrophils (DCFDA, flow cytometry, MFI); type: cell-based; conditions: for decrease of LPS-induced ROS production: 100 ng/mL LPS, 2 hours, 37 °C, LR12 or LR12-dimer 10 and 50 μg/mL; for TREM-1 inhibiting property / biological activity: preclinical in vitro pharmacology model
Method: FIG. 1 is a graph showing the results from flow cytometric quantification (DCFDA reduction) of neutrophils ROS production after 2 hours stimulation with LPS, LPS+10 μg/mL LR12, LPS+50 μg/mL LR12, LPS+10 μg/mL LR12-dimer (dimer), LPS+50 μg/mL LR12-dimer (dimer). […]; **p<0.01 (T test).
Neutrophils produce reactive oxygen species (ROS) in presence of LPS (lipopolysaccharides) following activation of the TREM-1 pathway and are thus used in the present example in order to assess TREM-1 activation and the biological activity of the LR12 dimer on the TREM-1 pathway. ROS production induced by TREM-1 activation and its modulation by LR12 can be quantified by flow cytometry. Any decrease in ROS production by LR12 (LPS+LR12 conditions) translates into a decrease in mean fluorescence intensity (MFI) as compared to the ROS production observed following the TREM-1 activation in presence of LPS (LPS condition).
Primary human neutrophils were isolated from the peripheral blood of healthy donors by immunomagnetic negative cell sorting with EasySep™ Human Monocyte/Neutrophil Isolation Kits (StemCell, Canada) following the manufacturer's instructions. Purity was assessed by flow cytometry. Cells were suspended in RPMI 1640 medium containing GlutaMAX and supplemented with 10% FCS, 25 mM HEPES, 100 U/ml penicillin and streptomycin before stimulation. Human primary neutrophils were incubated in resting conditions (also referred to as control conditions or ctrl 2), or with 100 ng/mL LPS from E. coli serotype 0127: B8 (Sigma-Aldrich), with or without LR12 or LR12-dimer (dimer) at the indicated concentrations.
Upon cleavage of the acetate groups by intracellular esterases and oxidation, the nonfluorescent DCFDA is converted to the highly fluorescent 2′,7′-dichlorofluorescein (DCF). 2.5×10^5 isolated human neutrophils were incubated 2 hours at 37 °C-5% CO2 with 5 μM of DCFDA, with or without 100 ng/mL LPS, and with or without LR12 or LR12-dimer (dimer) at the indicated concentrations. Data were acquired using flow cytometry. Results are expressed as mean fluorescence intensity (MFI).

[1] = test system: adult minipig model of induced sepsis; conditions: after induction of fecal peritonitis; Derive et al., 2013; cited from earlier work
[2] = Solubility of LR12 in formulations / screening of solubility aids; type: physicochemical
Method: Briefly, to reduce the formation of disulfide bridges, the pH during the formulation process was reduced to below 6.0. However, LR12 contains 4 acidic, negatively charged amino acids, namely glutamate (Glu) and aspartate (Asp) and no basic amino acids.
To solve this problem, solubility aids were screened at pH 5.5 and 6.5.
The purified substance of LR12 peptide (of example 2) is formulated using the following excipients: 50 mM sodium citrate pH 5.5; 50 mM NaCl.
The purified substance of LR12 peptide (of example 2) is formulated using the following excipients: 50 mM sodium phosphate pH 6.5; 50 mM NaCl.
The purified substance of LR12 peptide (of example 2) is formulated using the following excipients: 50 mM sodium citrate pH 5.5; 200 mM mannitol.
The purified substance of LR12 peptide (of example 2) is formulated using the following excipients: 50 mM sodium citrate pH 5.5; 150 mM betaine.
The purified substance of LR12 peptide (of example 2) is formulated using the following excipients: 5 0 mM sodium citrate pH 5.5; 50 mM lysine; 50 mM NaCl.
The purified substance of LR12 peptide (of example 2) is formulated using the following excipients: 50 mM sodium citrate pH 5.5; 50 mM arginine.
The purified substance of LR12 peptide (of example 2) is formulated using the following excipients: 25 mM sodium citrate pH 5.5; 225 mM arginine; 65 mM HCl.
Formulations using incremental concentrations of the purified substance of LR12 peptide (of example 2) and incremental concentrations of the following excipients: Arginine 90 to 420 mM, using only HCl for pH adjustment to 5.5.

TREM-1 signaling = conditions: Derive et al., 2012; cited from earlier work

CSCC[C@H](NC(=O)[C@H](CSSC[C@H](NC(=O)CNC(=O)[C@H](Cc1ccc(O)cc1)NC(=O)[C@H](CCC(=O)O)NC(=O)CNC(=O)[C@H](C)NC(=O)[C@H](CC(=O)O)NC(=O)[C@H](CCC(=O)O)NC(=O)[C@H](CCC(=O)O)NC(=O)[C@H](CCC(N)=O)NC(=O)[C@@H](N)CC(C)C)C(=O)N[C@@H](CCSC)C(N)=O)NC(=O)CNC(=O)[C@H](Cc1ccc(O)cc1)NC(=O)[C@H](CCC(=O)O)NC(=O)CNC(=O)[C@H](C)NC(=O)[C@H](CC(=O)O)NC(=O)[C@H](CCC(=O)O)NC(=O)[C@H](CCC(=O)O)NC(=O)[C@H](CCC(N)=O)NC(=O)[C@@H](N)CC(C)C)C(N)=O [LR12 dimer]
decrease of LPS-induced ROS production (TREM-1 pathway): not able to decrease the production of ROS by LPS-activated neutrophils
TREM-1 inhibiting property / biological activity (TREM-1 pathway): did not display any TREM-1 inhibiting property; also recorded: inactive in a preclinical in vitro pharmacology model; also recorded: biologically inactive
TREM-1 inhibiting property / biological activity (TREM-1 pathway; listed as LR12-dimer): not able to induce any pharmacological inhibition of TREM-1

CSCC[C@H](NC(=O)[C@H](CS)NC(=O)CNC(=O)[C@H](Cc1ccc(O)cc1)NC(=O)[C@H](CCC(=O)O)NC(=O)CNC(=O)[C@H](C)NC(=O)[C@H](CC(=O)O)NC(=O)[C@H](CCC(=O)O)NC(=O)[C@H](CCC(=O)O)NC(=O)[C@H](CCC(N)=O)NC(=O)[C@@H](N)CC(C)C)C(N)=O [LR12]
cardiovascular failure [1]: reduced cardiovascular failure
survival [1]: improved survival
solubility below pH 5.0 ([2]; below pH 5.0): barely soluble below pH 5.0
solubility with solubility aids (no improvement) ([2]; pH 5.5 and 6.5, Tween 20, mannitol, sucrose, trehalose, betaine, urea, glutathione, ammonium acetate, citrate): failed to improve the solubility of LR12
solubility ([2]; screened at pH 5.5 and 6.5, only by adding lysine or arginine or histidine, read-out: solubility reached with positively charged solubility enhancing agents): 40 mg/mL
decrease of LPS-induced ROS production (TREM-1 pathway): able to decrease in a dose-dependent manner the LPS-induced release of ROS
anti-inflammatory properties (TREM-1 signaling): exhibit anti-inflammatory properties by inhibiting TREM-1 signaling
